Measured values taken from PMC10041525, “New Dual Inhibitors of Bacterial Topoisomerases with Broad-Spectrum Antibacterial Activity and In Vivo Efficacy against Vancomycin-Intermediate Staphylococcus aureus” (Journal of Medicinal Chemistry, 2023).
In brackets after ≈: the same amount, converted by molar mass. Several values for one entry are separate records, joined by “and”; a condition that tells them apart may be missing. Equal values may be shown once. Read-outs that look alike come from different tables or passages of the source.

Experiments:
[1] = target: T1, DNA gyrase from E. coli (Escherichia coli, UniProt P0AES6); test: supercoiling HTS plate assay; type: biochemical
T1 construct: purchased Inspiralis
Procedure, shortened: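 E. coli gyrase tested by supercoiling and topo IV by relaxation in high-throughput plate format. IC50 from seven inhibitor concentrations; mean of three independent measurements.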

[2] = physchem; type: physicochemical; details: for solubility thermodynamic at 24 h / solubility thermodynamic at 48 h: phosphate-buffered saline (PBS)
Experimental: For the PBS, 2.38 g of disodium hydrogen phosphate dodecahydrate, 0.19 g of potassium dihydrogen phosphate, and 8.0 g of sodium chloride were added to distilled water (900 mL), and the solution was mixed overnight. […] Samples were prepared by weighing the exact mass of solid compounds (about 1 mg), and then, the appropriate volume of PBS was added to reach the final concentration of ∼1 mg/mL. […] The supernatant was diluted 3× with a 1:1 mixture of 0.1% TFA in water and acetonitrile and analyzed by HPLC. For the 7-point calibration curves, concentrated stock solutions of the compounds were prepared at concentrations of 10 and 0.5 mM in DMSO, which were diluted with a 1:1 mixture of 0.1% TFA in water and acetonitrile to the desired final concentrations and analyzed by HPLC. Results are given in μM as an average value of two independent experiments. For details on calibration curves, concentrations, analytical method, and HPLC method, see the Supporting Information.
Thermodynamic solubility assay
To determine thermodynamic solubility of compounds in PBS, calibration curves for the assayed compounds were prepared using seven concentrations. First, DMSO stock solutions of compounds at 10 mM and 0.5 mM concentration were prepared and then diluted (0.1% TFA in […]
Quality control (QC) samples were diluted from stock solutions with a 1:1 mixture of 0.1% TFA in water and acetonitrile to final concentrations of 60 µM, 20 µM, and 2 µM (6 µM, 2 µM, and 0.2 µM for 7f or 0.6 µM, 0.2 µM, and 0.02 µM for 7g).
Analytical reversed-phase UHPLC analyses were performed on Thermo Scientific Dionex UltiMate 3000 modular system (Thermo Fisher Scientific Inc., MA, USA). Waters Acquity UPLC® HSS C18 SB column (2.1 × 50 mm, 1.8 μm; Waters, Milford, MA, USA) was used at T […]
Mobile phase consisted of 0.1% trifluoroacetic acid in ultrapure water (solvent A) and acetonitrile […]
The obtained data was processed in Chromeleon CDS software (Thermo Fisher Scientific Inc., […]
Analytical method was tested for accuracy, precision and linear rang. Accuracy was […]
(or 2 or 0.2) µM and 60 (or 6 or 0.6) µM) to their true values and expressed in (%). Values were […]
Method repeatability was determined by calculating the RSD from the separately prepared and analysed quality control samples (n = 3). […] Linearity of the […]
method (1 (or 0.1 or 0.01) µM to 100 (or 10 or 1) µM) was evaluated from the 7-point calibration […]
Solubility was determined in two independent experiments and results were calculated in […]

[3] = in vitro; type: in vitro ADME, mouse; details: male, CD-1, mouse; for fraction unbound at 4 h, 5 μM: plasma (pooled), mouse plasma, read-out: fu, fraction unbound; for recovery at 4 h, 5 μM: plasma protein binding assay
Experimental: The PPB studies were performed by Selvita d.o.o. (Zagreb, Croatia) in mouse plasma (CD-1 male, pooled, commercially obtained from BioIVT) via equilibrium dialysis. Compounds were assayed at 5 μM (0.5% DMSO) in two replicates, and incubation time was 4 h at 37 °C. Samples were taken at 0 min and 4 h. Aliquots from both buffer and plasma compartment matrix were matched and mixed with 6 volumes of STOP solution (acetonitrile/methanol (2:1) + internal standard – diclofenac) and analyzed by LC–MS/MS. Assay controls were caffeine (low), verapamil (moderate binding), and nicardipine (very high binding), and protein contamination was checked.

[4] = test system: E. coli ATCC 25922; test: IHMA QC MIC; type: cell-based; details: Escherichia coli, read-out: MIC
[5] = test system: P. aeruginosa ATCC 27853; test: IHMA QC MIC; type: cell-based; details: Pseudomonas aeruginosa, read-out: MIC
[6] = pH 7.4, PBS pH 7.4, read-out: thermodynamic solubility, Experiment 1
[7] = pH 7.4, PBS pH 7.4, read-out: thermodynamic solubility, Experiment 2
[8] = pH 7.4, thermodynamic solubility (pH = 7.4), PBS, 37 °C, 24 h, mean of two

Row | SMILES | IC50 ([1]; read-out: IC50) | solubility thermodynamic at 24 h [2, 6] | solubility thermodynamic at 24 h [2, 7] | solubility thermodynamic at 24 h [2, 8] | solubility thermodynamic at 48 h [2, 8] | fraction unbound at 4 h, 5 μM [3] | recovery at 4 h, 5 μM [3] | IC50 ([1]; IC50 [nM] E. coli DNA gyrase) | thermodynamic solubility (pH = 7.4) ([2]; PBS, 37 °C, 24 h, mean of two) | IC50 ([1]; IC50) | MIC ([4]; ATCC25922, QC strain E. coli ATCC 25922, test date 2021-11-11) | MIC ([4]; ATCC25922, QC strain E. coli ATCC 25922, test date 2021-11-26) | MIC ([5]; ATCC27853, QC strain P. aeruginosa ATCC 27853, test date 2021-11-11) | MIC ([5]; ATCC27853, QC strain P. aeruginosa ATCC 27853, test date 2021-11-26)
1 | Cc1[nH]c(C(=O)Nc2nc3c(N4CCOCC4C)cc(C(=O)O)cc3s2)c(Cl)c1Cl (stereo not drawn) [7b, 2-(3,4-Dichloro-5-methyl-1H-pyrrole-2-carboxamido)-4-(3-methylmorpholino)benzo[d]thiazole-6-carboxylic Acid] | < 10 nM | 59.6 µM (≈ 28 µg/mL) | 76.6 µM (≈ 36 µg/mL) | 68.1 µM (≈ 32 µg/mL) | 68 µM (≈ 31.9 µg/mL) | 0.013 | 84.5% | – | – | – | – | – | – | –
2 | Cc1[nH]c(C(=O)Nc2nc3c(N4CCOC[C@H]4C)cc(C(=O)O)cc3s2)c(Cl)c1Cl [7c, (R)-2-(3,4-Dichloro-5-methyl-1H-pyrrole-2-carboxamido)-4-(3-methylmorpholino)benzo[d]thiazole-6-carboxylic Acid] | 17 ± 8 nM | 8.67 µM (≈ 4.07 µg/mL) | 11.6 µM (≈ 5.44 µg/mL) | 10.1 µM (≈ 4.74 µg/mL) | – | 0.016 | 93% | 30 ± 9 nM | 10.14 µM | – | – | – | – | –
3 | Cc1[nH]c(C(=O)Nc2nc3c(N4CCOC[C@@H]4C)cc(C(=O)O)cc3s2)c(Cl)c1Cl [7d, (S)-2-(3,4-Dichloro-5-methyl-1H-pyrrole-2-carboxamido)-4-(3-methylmorpholino)benzo[d]thiazole-6-carboxylic Acid] | – | 5.6 µM (≈ 2.63 µg/mL) | 6.07 µM (≈ 2.85 µg/mL) | 5.8 µM (≈ 2.72 µg/mL) | – | 0.011 | 89.5% | 23 nM | 5.84 µM | 18 ± 7 nM | – | – | – | –
4 | Cc1[nH]c(C(=O)Nc2nc3c(N4CCOC(C)C4)cc(C(=O)O)cc3s2)c(Cl)c1Cl (stereo not drawn) [7e, 2-(3,4-Dichloro-5-methyl-1H-pyrrole-2-carboxamido)-4-(2-methylmorpholino)benzo[d]thiazole-6-carboxylic Acid] | < 10 nM | 71.9 µM (≈ 33.7 µg/mL) | 88.8 µM (≈ 41.7 µg/mL) | 80.4 µM (≈ 37.7 µg/mL) | 80 µM (≈ 37.5 µg/mL) | – | – | – | 80.35 µM | – | – | – | – | –
5 | Cc1[nH]c(C(=O)Nc2nc3c(N4CC(C)OC(C)C4)cc(C(=O)O)cc3s2)c(Cl)c1Cl (stereo not drawn) [7f, 2-(3,4-Dichloro-5-methyl-1H-pyrrole-2-carboxamido)-4-(2,6-dimethylmorpholino)benzo[d]thiazole-6-carboxylic Acid] | < 10 nM | 0.95 µM (≈ 0.459 µg/mL) | 0.89 µM (≈ 0.43 µg/mL) | 0.92 µM (≈ 0.445 µg/mL) | – | – | – | – | – | – | – | – | – | –
6 | Cc1[nH]c(C(=O)Nc2nc3c(N4C[C@H]5CC[C@@H](C4)O5)cc(C(=O)O)cc3s2)c(Cl)c1Cl [7g, 4-((1R,5S)-8-Oxa-3-azabicyclo[3.2.1]octan-3-yl)-2-(3,4-dichloro-5-methyl-1H-pyrrole-2-carboxamido)benzo[d]thiazole-6-carboxylic Acid] | < 10 nM | 0.33 µM (≈ 0.159 µg/mL) | 0.19 µM (≈ 0.0915 µg/mL) | – | 0.26 µM (≈ 0.125 µg/mL) | 0.004 | 93.5% | – | – | – | – | – | – | –
7 | Cc1[nH]c(C(=O)Nc2nc3c(N4CCOC(C(F)(F)F)C4)cc(C(=O)O)cc3s2)c(Cl)c1Cl (stereo not drawn) [7i, 2-(3,4-Dichloro-5-methyl-1H-pyrrole-2-carboxamido)-4-(2-(trifluoromethyl)morpholino)benzo[d]thiazole-6-carboxylic Acid] | < 10 nM | 10.7 µM (≈ 5.57 µg/mL) | – | 10.7 µM (≈ 5.6 µg/mL) | 11 µM (≈ 5.76 µg/mL) | < 0.001 | 110% | – | – | – | – | – | – | –
8 | COCC1CCCN1c1cc(C(=O)O)cc2sc(NC(=O)c3[nH]c(C)c(Cl)c3Cl)nc12 (stereo not drawn) [7n, 2-(3,4-Dichloro-5-methyl-1H-pyrrole-2-carboxamido)-4-(2-(methoxymethyl)pyrrolidin-1-yl)benzo[d]thiazole-6-carboxylic Acid] | – | 11 µM (≈ 5.31 µg/mL) | 11.4 µM (≈ 5.49 µg/mL) | 11.2 µM (≈ 5.41 µg/mL) | – | – | – | 14 ± 6 nM | 11.18 µM | – | – | – | – | –
9 | COC[C@@H]1CCCN1c1cc(C(=O)O)cc2sc(NC(=O)c3[nH]c(C)c(Cl)c3Cl)nc12 [7o, (S)-2-(3,4-Dichloro-5-methyl-1H-pyrrole-2-carboxamido)-4-(2-(methoxymethyl)pyrrolidin-1-yl)benzo[d]thiazole-6-carboxylic Acid] | – | 10.6 µM (≈ 5.12 µg/mL) | 11.4 µM (≈ 5.5 µg/mL) | 11 µM (≈ 5.32 µg/mL) | – | – | – | 25 nM | 10.98 µM | – | – | – | – | –
10 | Cc1[nH]c(C(=O)Nc2nc3c(N4CCC(O)CC4)cc(C(=O)O)cc3s2)c(Cl)c1Cl [7p, 2-(3,4-Dichloro-5-methyl-1H-pyrrole-2-carboxamido)-4-(4-hydroxypiperidin-1-yl)benzo[d]thiazole-6-carboxylic Acid] | – | 279 µM (≈ 131 µg/mL) | 88.3 µM (≈ 41.4 µg/mL) | 184 µM (≈ 86.4 µg/mL) | – | – | – | < 10 nM | 183.7 µM and 183.67 µM | – | – | – | – | –
11 | Cc1[nH]c(C(=O)Nc2nc3c(N4CCOCC4)cc(C(=O)O)cc3s2)cc1Cl [16a, 2-(4-Chloro-5-methyl-1H-pyrrole-2-carboxamido)-4-morpholinobenzo[d]thiazole-6-carboxylic Acid] | – | 134 µM (≈ 56.3 µg/mL) | 141 µM (≈ 59.6 µg/mL) | 138 µM (≈ 57.9 µg/mL) | 137 µM (≈ 57.7 µg/mL) | – | – | 13 ± 5 nM | 137.58 µM | – | – | – | – | –
12 | Cc1[nH]c(C(=O)Nc2nc3c(N4CCOCC4)cc(C(=O)O)cc3s2)cc1F [16b, 2-(4-Fluoro-5-methyl-1H-pyrrole-2-carboxamido)-4-morpholinobenzo[d]thiazole-6-carboxylic Acid] | – | 140 µM (≈ 56.7 µg/mL) | 123 µM (≈ 49.6 µg/mL) | 131 µM (≈ 53 µg/mL) | – | – | – | 31 ± 6 nM | 131.4 µM and 131.42 µM | – | – | – | – | –
13 | CC1(C)S[C@@H]2[C@H](NC(=O)[C@H](N)c3ccccc3)C(=O)N2[C@H]1C(=O)O [Ampicillin, ampicillin] | – | – | – | – | – | – | – | – | – | – | 8 mg/L (≈ 22.9 µM) | 4 mg/L (≈ 11.4 µM) | > 32 mg/L | > 32 mg/L
